# Measurements as given in patent US20230002324A1, “NAPHTHOQUINONE DERIVATIVES FOR TREATMENT OF OXIDATIVE STRESS DISORDERS” (PTC THERAPEUTICS, INC., priority 2019, published 2023).
# Like-named read-outs stand apart in the source and are kept apart here.
# Legend:
# [1] = tested on: Q7 cells (ST HDH Q7/7; immortalized mouse striatal cells); assay: Q7 RSL3 challenge cell survival (rescue) assay; assay type: cell-based; conditions: 18 h, read-out: Q7 RSL3 Survival EC50
# How it was run: (§1)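 Q7 (33° C.) or NHF (37° C.) cells, 3,000/well, attached 5 h, then test compounds at varying final concentrations followed within 15 min by RSL3 (2 micromolar final); 0.3% DMSO. Assay medium identical to growth medium.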
# [2] = tested on: normal human fibroblasts (NHF, GM21811); assay: NHF GM21811 RSL3 challenge cell survival (rescue) assay; assay type: cell-based; conditions: Fibroblast, 48 h, read-out: NHF GM21811 RSL3 Survival EC50
# How it was run: as §1
# CYP3A4 [3] = target: T1, CYP3A4 (Homo sapiens, UniProt P08684); assay: CYP450 Inhibition Assay 1 (pooled human liver microsomes, midazolam); assay type: in vitro ADME; conditions: Table 3; HLM 0.05 mg/mL, midazolam 5 μM, 5 min
# T1 construct: from tissue; host or cells: pooled human liver microsomes
# T1 sequence (P08684 whole entry): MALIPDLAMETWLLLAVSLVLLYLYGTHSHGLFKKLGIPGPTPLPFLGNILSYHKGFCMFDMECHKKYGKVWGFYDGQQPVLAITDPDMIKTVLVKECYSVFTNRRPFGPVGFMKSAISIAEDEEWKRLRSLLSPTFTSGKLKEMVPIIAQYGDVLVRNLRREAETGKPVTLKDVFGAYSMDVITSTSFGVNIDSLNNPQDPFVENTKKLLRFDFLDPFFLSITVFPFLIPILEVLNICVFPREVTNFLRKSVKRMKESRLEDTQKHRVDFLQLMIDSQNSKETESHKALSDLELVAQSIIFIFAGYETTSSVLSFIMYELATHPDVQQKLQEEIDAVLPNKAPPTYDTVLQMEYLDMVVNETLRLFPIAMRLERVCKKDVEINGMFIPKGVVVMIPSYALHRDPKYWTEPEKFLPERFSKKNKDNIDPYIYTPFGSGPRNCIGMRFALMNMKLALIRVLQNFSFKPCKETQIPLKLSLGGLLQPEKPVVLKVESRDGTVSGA
# Procedure: The CYP450 inhibition assay provides in vitro assessment of the inhibitory potential of the test compounds against cytochrome P450 enzymes. Selective substrates were incubated with pooled human liver microsomes (HLM) as single substrates. All assays employed 100 mM potassium phosphate buffer at pH 7.4.
# The assays were performed in a 96-well PCR plate in a final volume of 140 μL at 37° C. Test compounds were evaluated at seven concentrations to obtain IC50 values, with a final concentration of 0.1% DMSO in the incubation (total organic solvent at 1% in the incubation). Reactions were initiated by the addition of NADPH. After the enzyme-specific incubation time had elapsed, an aliquot from that enzyme reaction was quenched in Acetonitrile with 0.2% Formic Acid. Supernatant from the quenched reactions was diluted with an equal volume of water, prior to analysis by LC-MS/MS.
# All samples were analyzed on LC-MS/MS using an AB Sciex 6500+ instrument equipped with electrospray ionization source, coupled to a Shimadzu Nexera X2 system. Samples were separated using a Waters UPLC HSS T3, 1.8 μm column, 1×50 mm (catalog #186003535) at a flow rate of 200 μL/min. Injection volume was 2 μL.
# CYP3A4 [4] = target: T1, CYP3A4; assay: CYP450 Inhibition Assay 2 (pooled human liver microsomes, 5 concentrations); assay type: in vitro ADME; conditions: Table 3; HLM 0.05 mg protein/mL, 10 min reaction
# Procedure: In an alternative experimental design, test compounds were evaluated at 5 concentrations in a 96 well assay plate. Initial combination with pooled human liver microsomes (0.05 mg protein/mL) was followed by a 5 minute incubation. […] The assay plate was incubated for an additional 30 minutes before the reaction was initiated with the addition of NADPH. After 10 minutes of reaction time, the reaction was quenched and samples were analyzed in a similar manner as described above.
# [5] = tested on: Q7 cells (ST HDH Q7/7; immortalized mouse striatal cells); assay: Q7 Cystine Deprivation cell survival (rescue) assay; assay type: cell-based; conditions: Q7 cells, cystine-free medium, 18 h, Cell Titer Glo, 50% relative viability vs Vitamin K2 (1 micromolar), read-out: Q7 Cystine Deprivation Survival EC50
# How it was run: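 Cells were seeded at 3,000/well and allowed to attach for 5 h at 33 °C. Wells were then washed twice with PBS and switched to cystine-free DMEM containing FBS, 4 mM L-glutamine, 1 mM pyruvate and 30 mg/L methionine to induce ferroptotic death. Compounds were scored for survival rescue.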
# [6] = Q7 cells, RSL3 2 micromolar, Cell Titer Glo
# [7] = NHF cells, RSL3 2 micromolar, Cell Titer Glo
IC50 (CYP3A4 [3]) [µM],IC50 (CYP3A4 [4]) [µM],SMILES,"EC50 [1, 6] [nM]","EC50 [2, 7] [nM]",EC50 [1] [nM],EC50 [2] [nM],EC50 [5] [nM]
2.4,,"CC1=C(Cc2ccc(C(F)(F)F)c(C#N)n2)C(=O)c2c(F)ccc(F)c2C1=O [Example 79, 6-((5,8-difluoro-3-methyl-1,4-dioxo-1,4-dihydronaphthalen-2-yl)methyl)-3-(trifluoromethyl)picolinonitrile]",< 50,< 50,,,
1.56,,"N#Cc1nc(CC2=C(C3CC3)C(=O)c3c(F)ccc(F)c3C2=O)ccc1C(F)(F)F [Example 84, 6-((3-cyclopropyl-5,8-difluoro-1,4-dioxo-1,4-dihydronaphthalen-2-yl)methyl)-3-(trifluoromethyl)picolinonitrile]",< 50,< 50,,,
11,,"CCC1=C(Cc2ccc(C(F)(F)F)c(C#N)n2)C(=O)c2ccc(F)cc2C1=O [Example 81, 6-((3-ethyl-6-fluoro-1,4-dioxo-1,4-dihydronaphthalen-2-yl)methyl)-3-(trifluoromethyl)picolinonitrile]",< 50,< 50,,,
6.66,,"CCC1=C(Cc2ccc(C(F)(F)F)c(C#N)n2)C(=O)c2cc(F)cc(F)c2C1=O [Example 86, 6-((3-ethyl-5,7-difluoro-1,4-dioxo-1,4-dihydronaphthalen-2-yl)methyl)-3-(trifluoromethyl)picolinonitrile]",< 50,< 50,,,
4.14,,"CC1=C(Cc2ccc(C(F)(F)F)c(C#N)n2)C(=O)c2ccc(F)cc2C1=O [Example 70, 6-((6-fluoro-3-methyl-1,4-dioxo-1,4-dihydronaphthalen-2-yl)methyl)-3-(trifluoromethyl)picolinonitrile]",< 50,< 50,,,

# More lines, now with the values behind:
SMILES,IC50 (CYP3A4 [3]) [µM],IC50 (CYP3A4 [4]) [µM],"EC50 [1, 6] [nM]","EC50 [2, 7] [nM]",EC50 [1] [nM],EC50 [2] [nM],EC50 [5] [nM]
"CCC1=C(Cc2ccc(C(F)(F)F)cn2)C(=O)c2c(F)ccc(F)c2C1=O [Example 55, 2-ethyl-5,8-difluoro-3-((5-(trifluoromethyl)pyridin-2-yl)methyl)naphthalene-1,4-dione]",3.68,,,,< 50,< 50,
"CC1=C(Cc2ccc(C(F)(F)F)cn2)C(=O)c2ccccc2C1=O [Example 1, 2-methyl-3-((5-(trifluoromethyl)pyridin-2-yl)methyl)naphthalene-1,4-dione]",5.78,35.7,< 50,< 50,,,< 50
"CC1=C(Cc2ccccn2)C(=O)c2ccccc2C1=O [Example 23, 2-methyl-3-(pyridin-2-ylmethyl)naphthalene-1,4-dione]",22.8,12.7,,,,,< 50
